Results reported in patent publication US5294632A, “Phosphono/biaryl substituted dipetide derivatives” (Ciba-Geigy Corporation, priority 1992, dated 1994).

Tests used:
[1] = biological target: T1, Neutral endopeptidase 3.4.24.11 (Rattus norvegicus, UniProt P07861); test: in vitro inhibition of neutral endopeptidase (NEP) 3.4.24.11, GAAP substrate assay; type: biochemical; conditions: rat kidney cortex membranes, 500 μM GAAP substrate, pH 7.4, 25° C., 10 minutes
T1 construct: rat kidney cortex membranes prepared by method of Maeda et al, 1983; from tissue; host or cells: rat kidney cortex membranes
T1 sequence (P07861 1-750): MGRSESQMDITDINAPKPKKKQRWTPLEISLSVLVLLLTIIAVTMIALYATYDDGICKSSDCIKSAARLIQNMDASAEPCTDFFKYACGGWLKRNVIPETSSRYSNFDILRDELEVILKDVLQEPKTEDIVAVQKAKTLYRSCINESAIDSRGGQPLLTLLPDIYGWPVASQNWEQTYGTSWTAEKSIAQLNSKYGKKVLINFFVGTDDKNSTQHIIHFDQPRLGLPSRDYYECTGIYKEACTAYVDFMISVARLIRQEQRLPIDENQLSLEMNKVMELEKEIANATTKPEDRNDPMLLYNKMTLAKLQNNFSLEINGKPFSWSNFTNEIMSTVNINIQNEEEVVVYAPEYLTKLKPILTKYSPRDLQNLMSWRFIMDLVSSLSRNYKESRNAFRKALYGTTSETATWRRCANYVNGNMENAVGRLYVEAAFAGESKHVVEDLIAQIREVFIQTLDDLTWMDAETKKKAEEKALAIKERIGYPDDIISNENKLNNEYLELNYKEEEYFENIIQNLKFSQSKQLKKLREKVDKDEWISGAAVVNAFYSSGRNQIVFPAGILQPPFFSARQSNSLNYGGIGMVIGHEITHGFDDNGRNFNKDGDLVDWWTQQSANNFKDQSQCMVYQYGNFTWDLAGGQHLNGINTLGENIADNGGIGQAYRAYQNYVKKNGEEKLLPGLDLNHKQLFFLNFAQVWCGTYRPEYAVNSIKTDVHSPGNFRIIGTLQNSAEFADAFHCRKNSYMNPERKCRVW
Protocol: The in vitro inhibition of neutral endopeptidase (NEP) 3.4.24.11 can be determined as follows:
Neutral endopeptidase 3.4.24.11 activity is determined by the hydrolysis of the substrate glutaryl-Ala-Ala-Phe-2-naphthylamide (GAAP) using a modified procedure of Orlowski and Wilk (1981). The incubation mixture (total volume 125 μl) contains 4.2 μg of protein (rat kidney cortex membranes prepared by method of Maeda et al, 1983), 50 mM tris buffer, pH 7.4 at 25° C., 500 μM substrate (final concentration), and leucine aminopeptidase M (2.5 μg). The mixture is incubated for 10 minutes at 25° C. and 100 μl of fast garnet (250 μg fast garnet/ml of 10% Tween 20 in 1M sodium acetate, pH 4.2) is added. Enzyme activity is measured spectrophotometrically at 540 nm. One unit of NEP 24.11 activity is defined as 1 nmol of 2-naphthylamine released per minute at 25° C. at pH 7.4. IC50 values are determined, i.e. the concentration of test compound required for 50% inhibition of the release of 2-naphthylamine.
The test compound is dissolved in dimethyl sulfoxide or 0.25 M sodium bicarbonate solution, and the solution is diluted with pH 7.4 buffer to the desired concentration.
In vitro testing is most appropriate for the free phosphono/carboxylic acids of the invention.

[2] = system: plasma ANF levels; test: effect on rat plasma ANF concentration during ANF infusion; type: in vivo, Male Sprague-Dawley rats; conditions: about 1-30 mg/kg p.o., in 10% ethanol/polyethylene glycol 400; ANF infused 450 ng/kg/min i.v.
Protocol: The effect of the compounds of the invention on rat plasma ANF concentration can be determined as follows:
Male Sprague-Dawley rats (275-390 g) are anesthetized with ketamine (150 mg/kg)/acepromazine (10%) and instrumented with catheters in the femoral artery and vein to obtain blood samples and infuse ANF, respectively. The rats are tethered with a swivel system and are allowed to recover for 24 hours before being studied in the conscious, unrestrained state.
In this assay, plasma ANF levels are determined in the presence and absence of NEP inhibition. On the day of study, all rats are infused continuously with ANF at 450 ng/kg/min. i.v. for the entire 5 hours of the experiment. Sixty minutes after beginning the infusion, blood samples for baseline ANF measurements are obtained (time 0) and the rats are then randomly divided into groups treated with the test compound or vehicle. Additional blood samples are taken 30, 60, 120, 180 and 240 minutes after administration of the test compound.
Plasma concentrations are determined by a specific radioimmunoassay. […] The supernatant is decanted and the pellets counted in a gamma counter. […] Plasma ANF levels are expressed as a percent of those measured in vehicle-treated animals which received ANF alone (450 ng/kg/min i.v.).

[3] = system: DOCA-salt hypertensive rats; test: antihypertensive effect in DOCA-salt hypertensive rats; type: in vivo; conditions: 30 mg/kg p.o., in PEG 400; DOCA-salt hypertensive rat
Protocol: The antihypertensive effect can be determined in desoxycorticosterone acetate (DOCA)-salt hypertensive rats.
DOCA-salt hypertensive rats (280-380 g) are prepared by the standard method. Rats underwent a unilateral nephrectomy and one week later are implanted with silastic pellets containing 100 mg/kg of DOCA. The rats are maintained on 1% NaCl/0.2% KCl drinking water for three to five weeks until sustained hypertension is established. The antihypertensive activity is evaluated at this time.
Two days before an experiment, the rats are anesthetized with methoxyflurane and instrumented with catheters in the femoral artery to measure arterial blood pressure. Forty-eight hours later, baseline arterial pressure and heart rate are recorded during a 1 hour period. The test compound (30 mg/kg p.o.) or vehicle is then administered and the same cardiovascular parameters are monitored for an additional 5 hours.

[4] = system: ANF-induced natriuresis; test: potentiation of the natriuretic effect of ANF in anesthetized rats; type: in vivo, Male Sprague-Dawley rats; conditions: 30 mg/Kg in polyethylene glycol 400, intraduodenally; ANF 1 μg/kg i.v. bolus
Protocol: The potentiation of the natriuretic effect of ANF can be determined as follows:
Male Sprague-Dawley rats (280-360 g) are anesthetized with Inactin (100 mg/kg i.p.) and instrumented with catheters in the femoral artery, femoral vein and urinary bladder to measure arterial pressure, administer ANF and collect urine, respectively. A continuous infusion of normal saline (33 μl/min) is maintained throughout the experiment to promote diuresis and sodium excretion. The experimental protocol consists of an initial 15 minute collection period (designated as pre-control) followed by three additional collection periods. Immediately after completion of the pre-control period, test compound or vehicle is administered; nothing is done for the next 45 minutes. […] At the conclusion of this period, ANF is administered (1 μg/kg i.v. bolus) to all animals and arterial pressure and renal parameters are determined during two consecutive 15 minutes collection periods.
Mean arterial pressure, urine flow and urinary sodium excretion are determined for all collection periods. Blood pressure is measured with a Gould p50 pressure transducer, urine flow is determined gravimetrically, sodium concentration is measured by flame photometry, and urinary sodium excretion is calculated as the product of urine flow and urine sodium concentration.

IC50 [1] [nM]	Compound	increase in plasma ANF levels [2]	reduction in blood pressure [3]	potentiation of ANF-induced natriuresis [4]
~1.6	O=C(O)CCNC(=O)[C@H](Cc1ccc(-c2ccccc2)cc1)NCP(=O)(O)O [(S)-antipode, S-(+)-N-[2-(phosphonomethylamino)-3-(4-biphenylyl)-propionyl]-3-aminopropionic acid]	–	–	–
–	O=C(O)CCNC(=O)[C@H](Cc1ccc(-c2ccccc2)cc1)NCP(=O)(Oc1ccccc1)Oc1ccccc1 [(S)-N-[2-(diphenylphosphonomethylamino)-3-(4-biphenylyl)propionyl]-3-aminopropionic acid]	significant increases in plasma ANF levels	significant reduction in blood pressure	significant potentiation of ANF-induced natriuresis
~4.3	O=C(O)CCNC(=O)C(Cc1ccc(-c2ccccc2)cc1)NCP(=O)(O)O (centres unmarked) [N-[2-(phosphonomethylamino)-3-(4-biphenylyl)-propionyl]-3-aminopropionic acid]	–	–	–
